Test results: US8119805B2, “Substituted disulfonamide compounds” (Gruenenthal GmbH, priority 2008, dated 2012)
Where a name gives a salt, the structure may show the parent alone.

Experiments:
[1] = molecular target: T1, B1R receptor of the rat (rB1R) (Rattus norvegicus, UniProt P97583); test: Functional investigation on the bradykinin 1 receptor (B1R), FLIPR Ca2+ assay, rB1R cells; type: cell-based; settings: test substance 10 μM; CHO K1 cells transfected with rat B1R gene; Fluo-4 Ca2+ signal; agonist Des-Arg9-bradykinin at EC80; % of maximum achievable inhibition; read-out: B1R antagonism, rat [10 μM] % inhibition
T1 construct: expressed in transfected cells; host or cells: CHO K1 cells
T1 sequence (P97583 1-337): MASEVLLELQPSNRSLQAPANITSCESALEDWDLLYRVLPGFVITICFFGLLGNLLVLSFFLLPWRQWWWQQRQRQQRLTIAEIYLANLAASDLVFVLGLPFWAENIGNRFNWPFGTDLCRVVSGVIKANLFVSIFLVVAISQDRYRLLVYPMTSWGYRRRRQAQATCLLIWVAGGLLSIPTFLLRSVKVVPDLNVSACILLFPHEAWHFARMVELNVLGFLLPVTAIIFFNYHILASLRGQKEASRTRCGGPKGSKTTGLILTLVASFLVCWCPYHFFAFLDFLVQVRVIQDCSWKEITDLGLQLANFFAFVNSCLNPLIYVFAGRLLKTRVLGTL
Procedure: (§1) The agonistic or antagonistic action of substances on the bradykinin 1 receptor (B1R) of the human and rat species can be quantified with ectopically expressing cell lines (CHO K1 cells) and with the aid of a Ca^2+-sensitive dyestuff (Fluo-4) in a fluorescent imaging plate reader (FLIPR). The value in % activation is based on the Ca^2+ signal after addition of Lys-Des-[…]-bradykinin (0.5 nM) or Des-[…]-bradykinin (100 nM). Antagonists lead to a suppression of the Ca^2+inflow after addition of the agonist. % inhibition compared with the maximum achievable inhibition is stated. The agonistic or antagonistic action of substances on the bradykinin 1 receptor (B1R) of the human and rat species can be determined with the following assay. In accordance with this assay, the Ca^2+ inflow through the channel is quantified with the aid of a Ca^2+-sensitive dyestuff (type Fluo-4, Molecular Probes Europe BV, Leiden, Holland) in a fluorescent imaging plate reader (FLIPR, Molecular Devices, Sunnyvale, USA). Chinese hamster ovary cells (CHO K1 cells) transfected stably with the human B1R gene (hB1R cells) or the B1R gene of the rat (rB1R cells) are used. For functional studies, these cells are plated out on black 96-well plates with a clear base (BD Biosciences, Heidelberg, Germany or Greiner, Frickenhausen, Germany) in a density of 20,000-35,000 cells/well. The cells are left overnight at 37° C. and 5% CO2 in culture medium (hB1R cells: Nutrient Mixture Ham's F12, Gibco Invitrogen GmbH, Karlsruhe, Germany or DMEM, Sigma-Aldrich, Taufkirchen, Germany; rB1R cells: D-MEM/F12, Gibco Invitrogen GmbH, Karlsruhe, Germany) with 10 vol. % FBS (foetal bovine serum, Gibco Invitrogen GmbH, Karlsruhe, Germany or PAN Biotech GmbH, Aidenbach, Germany). On the following day, the cells are loaded for 60 min at 37° C. with 2.13 μM Fluo-4 (Molecular Probes Europe BV, Leiden Holland) in HBSS buffer (Hank's buffered saline solution, Gibco Invitrogen GmbH, Karlsruhe, Germany) with 2.5 mM probenecid (Sigma-Aldrich, Taufkirchen, Germany) and 10 mM HEPES (Sigma-Aldrich, Taufkirchen, Germany). The plates are then washed 2× with HBSS buffer, and HBSS buffer which additionally contains 0.1% BSA (bovine serum albumin; Sigma-Aldrich, Taufkirchen, Germany), 5.6 mM glucose and 0.05% gelatine (Merck KGaA, Darmstadt, Germany) is added. After a further incubation of 20 minutes at room temperature, the plates are inserted into the FLIPR for the Ca^2+ measurement. Alternatively, the plates are washed with buffer A (15 mM HEPES, 80 mM NaCl, 5 mM KCl, 1.2 mM CaCl2, 0.7 mM MgSO4, 2 g/l glucose, 2.5 mM probenecid), buffer A is added and the plates are loaded with 2.5 μM Fluo-4 and 0.025% Pluronic F127 (Sigma-Aldrich, Taufkirchen, Germany). Thereafter, the cells are washed 2× with buffer A and incubated for 30 minutes at room temperature with buffer A, which additionally contains 0.05% BSA and 0.05% gelatine, and thereafter inserted into the FLIPR for the Ca^2+ measurement. The Ca^2+-dependent fluorescence is measured here before and after addition of substances (λex=488 nm, λem=540 nm). Quantification is by measurement of the highest fluorescence intensity (FC, fluorescence counts) over time. The FLIPR protocol consists of 2 additions of substance. Test substances (10 μM) are first pipetted on to the cells and the Ca^2+ inflow is compared with the control (hB1R: Lys-Des-[…]-bradykinin>=50 nM; rB1R: Des-[…]-bradykinin 10 μM). This gives the result in % activation based on the Ca^2+ signal after addition of Lys-Des-[…]-bradykinin (>=50 nM) or Des-[…]-bradykinin (10 μM). After incubation for 10-20 minutes, Lys-Des-[…]-bradykinin (hB1R) or Des-[…]-bradykinin (rB1R) at the EC80 concentration is applied and the inflow of Ca^2+ is likewise determined. Antagonists lead to a suppression of the Ca^2+ inflow. The percent inhibition compared to the maximum achievable inhibition is calculated. In order to determine the IC50 value, the substances are added in various concentrations. […]

[2] = molecular target: T2, human B1R receptor (hB1R) (Homo sapiens, UniProt P46663); test: Functional investigation on the bradykinin 1 receptor (B1R), FLIPR Ca2+ assay, hB1R cells; type: cell-based; settings: test substance 10 μM; CHO K1 cells transfected with human B1R gene; Fluo-4 Ca2+ signal; agonist Lys-Des-Arg9-bradykinin at EC80; % of maximum achievable inhibition; read-out: B1R antagonism, human [10 μM] % inhibition
T2 construct: expressed in transfected cells; host or cells: CHO K1 cells
T2 sequence (P46663 1-353): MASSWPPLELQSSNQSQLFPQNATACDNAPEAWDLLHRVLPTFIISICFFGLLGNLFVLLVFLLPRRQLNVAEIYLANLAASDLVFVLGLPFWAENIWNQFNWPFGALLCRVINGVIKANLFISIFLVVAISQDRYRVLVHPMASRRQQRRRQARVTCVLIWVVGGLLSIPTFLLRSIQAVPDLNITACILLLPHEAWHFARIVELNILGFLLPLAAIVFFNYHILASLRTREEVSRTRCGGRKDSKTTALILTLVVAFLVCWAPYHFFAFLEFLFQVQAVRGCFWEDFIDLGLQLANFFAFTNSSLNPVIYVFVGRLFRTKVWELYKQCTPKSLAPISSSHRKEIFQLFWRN
Procedure: as §1

| Compound | inhibition at 10 µM [1] | inhibition at 10 µM [2] |
| --- | --- | --- |
| CN1CCC(N2CCN(S(=O)(=O)CCC[C@@H]3CCCN3S(=O)(=O)c3cccc(C(F)(F)F)c3)CC2)CC1 [Example 35, (S)-1-(1-Methylpiperidin-4-yl)-4-(3-(1-(3-(trifluoromethyl)phenylsulfonyl)pyrrolidin-2-yl)propylsulfonyl)piperazine] | 91% | 23% |
| CN1CCC(N2CCN(S(=O)(=O)CCCCC3CCCN3S(=O)(=O)c3cccc4ccccc34)CC2)CC1 (centres unmarked) [Example 5, 1-(1-Methylpiperidin-4-yl)-4-(4-(1-(naphthalen-1-ylsulfonyl)pyrrolidin-2-yl)butylsulfonyl)piperazine dihydrochloride] | 56% | 49% |
| CN1CCC(N2CCN(S(=O)(=O)CCC[C@@H]3CCCN3S(=O)(=O)c3c(Cl)cc(Cl)cc3Cl)CC2)CC1 [Example 28, (S)-1-(1-Methylpiperidin-4-yl)-4-(3-(1-(2,4,6-trichlorophenylsulfonyl)pyrrolidin-2-yl)propylsulfonyl)piperazine] | 91% | 104% |
| O=S(=O)(CCC[C@@H]1CCCN1S(=O)(=O)c1ccc2ccccc2c1)N1[C@@H]2CC[C@H]1C[C@H](Oc1ccncc1)C2 [Example 57, (1R,3R,5S)-8-(3-((S)-1-(Naphthalen-2-ylsulfonyl)pyrrolidin-2-yl)propylsulfonyl)-3-(pyridin-4-yloxy)-8-azabicyclo[3.2.1]octane] | 54% | 25% |
| COc1cc(C)c(S(=O)(=O)N2CCC[C@H]2CCCS(=O)(=O)N2[C@@H]3CC[C@H]2C[C@H](Oc2ccncc2)C3)c(C)c1 [Example 54, (1R,3R,5S)-8-(3-((S)-1-(4-Methoxy-2,6-dimethylphenylsulfonyl)pyrrolidin-2-yl)propylsulfonyl)-3-(pyridin-4-yloxy)-8-azabicyclo[3.2.1]octane] | 98% | 100% |
| COc1cc(C)c(S(=O)(=O)N2CCC(CCS(=O)(=O)N3CCN(c4ccncc4)CC3)C2)c(C)c1C (centres unmarked) [Example 22, 1-(2-(1-(4-Methoxy-2,3,6-trimethylphenylsulfonyl)pyrrolidin-3-yl)ethylsulfonyl)-4-(pyridin-4-yl)piperazine] | 95% | 103% |
| O=S(=O)(CCC[C@@H]1CCCN1S(=O)(=O)c1ccc(Cl)cc1Cl)N1[C@@H]2CC[C@H]1C[C@H](Oc1ccncc1)C2 [Example 59, (1R,3R,5S)-8-(3-((S)-1-(2,4-Dichlorophenylsulfonyl)pyrrolidin-2-yl)propylsulfonyl)-3-(pyridin-4-yloxy)-8-azabicyclo[3.2.1]octane] | 96% | 94% |
| COc1cc(C)c(S(=O)(=O)N2CC(CCS(=O)(=O)N3CCC(CCN4CCCC4)CC3)CO2)c(C)c1C (centres unmarked) [Example 15] | 18% | 97% |
| COc1cc(C)c(S(=O)(=O)N2CCCC2CCCCS(=O)(=O)N2CCN(C3CCN(C)CC3)CC2)c(C)c1C (centres unmarked) [Example 7, 1-(4-(1-(4-Methoxy-2,3,6-trimethylphenylsulfonyl)pyrrolidin-2-yl)butylsulfonyl)-4-(1-methylpiperidin-4-yl)piperazine] | 58% | 38% |

Second part, the compound after the results:

| inhibition at 10 µM [1] | inhibition at 10 µM [2] | Compound |
| --- | --- | --- |
| 32% | 26% | O=S(=O)(CCC[C@@H]1CCCN1S(=O)(=O)Cc1cccc(Cl)c1)N1CCC(Oc2ccncc2)CC1 [Example 70, (S)-4-(1-(3-(1-(3-Chlorobenzylsulfonyl)pyrrolidin-2-yl)propylsulfonyl)piperidin-4-yloxy)pyridine] |
| 96% | 77% | O=S(=O)(CCC[C@@H]1CCCN1S(=O)(=O)c1ccc(Cl)c2ccccc12)N1CCC2(CCN(c3ccncc3)CC2)CC1 [Example 79, 3-(3-((S)-1-(4-Chloronaphthalen-1-ylsulfonyl)pyrrolidin-2-yl)propylsulfonyl)-9-(pyridin-4-yl)-3,9-diazaspiro[5.5]undecane] |
| 97% | 81% | COc1ccc(S(=O)(=O)N2CCC[C@H]2CCCS(=O)(=O)N2CCC3(CCN(c4ccncc4)CC3)CC2)c2ccccc12 [Example 77, 3-(3-((S)-1-(4-Methoxynaphthalen-1-ylsulfonyl)pyrrolidin-2-yl)propylsulfonyl)-9-(pyridin-4-yl)-3,9-diazaspiro[5.5]undecane] |
| 45% | 38% | O=S(=O)(CCC[C@@H]1CCCN1S(=O)(=O)c1c(Cl)cc(C(F)(F)F)cc1Cl)N1CCC(Oc2ccncc2)CC1 [Example 72, (S)-4-(1-(3-(1-(2,6-Dichloro-4-(Trifluoromethyl)phenylsulfonyl)pyrrolidin-2-yl)propylsulfonyl)piperidin-4-yloxy)pyridine] |
| 101% | 99% | Cc1cccc(Cl)c1S(=O)(=O)N1CCCCC1CCCS(=O)(=O)N1CCC2(CCN(c3ccncc3)CC2)CC1 (centres unmarked) [Example 86, 3-(3-(1-(2-Chloro-6-methylphenylsulfonyl)piperidin-2-yl)propylsulfonyl)-9-(pyridin-4-yl)-3,9-diazaspiro[5.5]undecane] |
| 86% | 74% | Cc1cc(S(=O)(=O)N2CCC[C@H]2CCCS(=O)(=O)N2CCC(Oc3ccncc3)CC2)c(C)cc1Cl [Example 53, (S)-4-(1-(3-(1-(4-Chloro-2,5-dimethylphenylsulfonyl)pyrrolidin-2-yl)propylsulfonyl)piperidin-4-yloxy)pyridine] |
| 12% | 33% | CC1(C)CCc2cc(S(=O)(=O)N3CCC[C@H]3CCCS(=O)(=O)N3CCC(Oc4ccncc4)CC3)ccc2O1 [Example 69, (S)-4-(1-(3-(1-(2,2-Dimethylchroman-6-ylsulfonyl)pyrrolidin-2-yl)propylsulfonyl)piperidin-4-yloxy)pyridine] |
